Entries after “also recorded” stand apart in the source; their conditions may differ. Read-outs that look alike come from different tables or passages of the source.
Assays:
GLT-1 = details: Zelenaia et al. 2000, cited from earlier work; for effect on db-cAMP-dependent GLT-1 expression: db-cAMP-treated astrocytes; for GLT-1 induction in cultured astrocytes: Schlag et al. 1998
GLT-1 mRNA = assay: Real Time RT-PCR of cultured astrocytes, GLT-1 mRNA; type: cell-based, rat; details: propentofylline 10, 100, 1000 μM; db-cAMP 250 μM; relative to GAPDH
Experimental: (§1) After approximately 14 days (2 days after subplating into plates, DIV 14) astrocytes had formed a confluent monolayer. […] Phase contrast microscopy was then carried out in order to assess the morphology of cells after the various treatments. Length of astrocyte processes was quantified by measuring all processes in 2-3 phase contrast images/group by an independent observer, blinded to the treatment groups using Image J v1.34s (National Institutes of Health, Bethesda, Md.).
(§2) Total RNA was isolated from astrocyte cultures using the Qiagen RNeasy mini-kit (Qiagen Inc., Valencia, Calif.) according to the manufacturer's protocol for isolation of total RNA from animal cells. Reverse transcription (RT) was carried out using the high-capacity cDNA archive kit (Applied Biosystems, Foster City, Calif.) according to the vendor's protocol. Real-time RT-PCR reactions were carried out in a total reaction volume of 25 μL containing a final concentration of 1.5 U Platinum Taq DNA polymerase (Invitrogen Corporation, Carlsbad, Calif.); 20 mM Tris HCl (pH 8.4); 50 mM KCl; 3 mM MgCl2; 200 μM dGTP, dCTP, and dATP; 400 μM dUTP and 1 U of UDG (uracyl DNA glycosylase); 900 nM of forward and reverse primers; 300 nM Taqman probe; and 5 μL of cDNA (50 ng) from the RT step. The iCycler™ Multicolor Real-Time PCR detection system (Bio-Rad Laboratories, Hercules, Calif.) was used to quantify PCR product. The fluorescence and threshold values (CT) obtained were used to compare the relative amount of target mRNA in experimental groups to those of controls using the 2^−ΔΔC^T method (Livak, K. J. and T. D. Schmittgen. 2001. Methods 25:402-408). Each experiment was run twice and samples were run in duplicate. For each sample, the mean CT value for the control gene (GAPDH) was then subtracted from the mean CT value for the gene of interest (GLT-1, GLAST) to obtain a ΔCT value. The ΔCT values for the control group (untreated) were then averaged and subtracted from the ΔCT for the experimental groups to obtain the ΔΔCT. The relative fold change from control was then expressed by calculation of 2^−ΔΔC^T for each sample and the results are expressed as the group mean fold change±SEM.

MIP-2 (CXCL2) = assay: ELISA of MIP-2 release from cultured astrocytes; type: cell-based, rat; details: seven days, LPS 1 μg/ml; propentofylline 1000 μM; db-cAMP 250 μM
Experimental: as §1
(§3) Standard ELISA was performed for quantitative determination of MCP-1 and MIP-2 protein in cell culture supernatant. Assays were carried out according to the manufacturer's specifications (Biosource, Camarillo, Calif.) using the sandwich enzyme immunoassay procedure. Optical density at 450 nm was obtained using the MRX Revelations program (Dynex Technologies, Chantilly, Va.) and relative protein concentrations were determined by comparing samples to the standard curve generated.

GLAST [1] = assay: Western blot of cultured astrocytes, GLAST protein; type: cell-based, rat; details: 3 or 7 days, normalized to β-actin
Experimental: as §1
Cells were scraped into PBS containing a protease inhibitor cocktail (1:1000, Sigma Chemical Co., St. Louis, Mo.) and then lysed by sonication in 5 one-second pulses. The samples were stored at −80° C. until use. Total protein was determined using the Lowry method (DC assay, Bio-Rad, Hercules, Calif.). Forty micrograms of protein (diluted in sample buffer and boiled) and standard protein markers were subjected to SDS/7.5% polyacrylamide gel electrophoresis and transferred to polyvinylidene difluoride (PVDF) membranes. Nonspecific binding was blocked by incubation with 5% milk/PBS-Tween at room temperature for 1 hour followed by incubation overnight at 4° C. with rabbit anti-GLT-1 (1:500) or guinea pig anti-GLAST (1:2500). The following day, blots were washed and incubated for 1 hour at room temperature with goat anti-rabbit HRP-conjugated secondary (1:3000) or goat anti-guinea pig HRP-conjugated secondary antibody (1:5000) and visualized with enhanced chemiluminescence (ECL). Images were obtained using the Typhoon Imaging System (Amersham-GE Healthcare, Piscataway, N.J.). Finally, blots were incubated for 15 minutes in stripping buffer and reprobed with a monoclonal mouse anti-β-actin antibody (1:10,000) as a loading control. Densitometric analysis was performed using ImageQuant 5.2 (Molecular Dynamics, GE Healthcare, Piscataway, N.J.).

MCP-1 (CCL2) = assay: ELISA of MCP-1 release from cultured astrocytes; type: cell-based, rat; details: seven days
Experimental: as §1, §3

[2] = system: primary cultured astrocytes; assay: Astrocyte morphology and process length, phase contrast microscopy; type: cell-based, rat
Experimental: Astrocyte cultures were prepared from the cortices of neonatal rats (1-3 days old) using the Worthington Papain Dissociation System (Worthington Biochemical Corporation, Lakewood, N.J.) according to the method of Huettner and Baughman (1986. J. Neurosci. 6:3044-3060). Briefly, cortices of neonatal rats were dissected, treated with papain (20 U/ml), dissociated by trituration and plated in 75 cm^2 flasks in Dulbecco's modified Eagle's medium (DMEM) supplemented with 10% charcoal-stripped fetal bovine serum (FBS), 1% GlutaMax and 1% penicillin/streptomycin (P/S, 100 U/ml penicillin, 100 μg/ml streptomycin, P/S). Cells were fed twice weekly until they reached confluence (Day in vitro, DIV 10-12) at which point they were mechanically shaken for 1 hr on an orbital shaker to remove any remaining oligodendrocytes and microglia. Subsequently, cultures were treated with trypsin for 30 minutes at 37° C. and re-plated into 6 or 12-well dishes at a density of about 3.0×10^4 cells/cm^2. Resultant cultures were greater than 95% astrocytic as determined by GFAP immunostaining.
as §1

GLAST [3] = assay: Immunocytochemistry of cultured astrocytes, GLAST staining; type: cell-based, rat; details: treated astrocytes
Experimental: Primary astrocyte-enriched cultures were plated onto sterile 18 mm glass coverslips. After three washes in PBS, cells were permeabilized in 5% glacial acetic acid/95% ethanol (acid-alcohol) for 10 minutes. After washing, cells were incubated in a 1% normal goat serum for 30 minutes and then overnight at 4° C. in primary mouse anti-GFAP (1:500), rabbit anti-GLT-1 (1:500) or guinea pig anti-GLAST (1:2000). The following day, cells were washed and then incubated for 2 hours at room temperature with goat anti-mouse Alexa Fluor™-555 (Invitrogen Corporation, Carlsbad, Calif.) goat anti-guinea pig Alexa Fluor™-488 (Invitrogen Corporation, Carlsbad, Calif.) or goat anti-rabbit Alexa Fluor™-488 (Invitrogen Corporation, Carlsbad, Calif.; all at 1:250). Finally, cells were post-fixed in acid-alcohol and mounted with Vectashield (Vector Labs, Burlingame, Calif.) containing 4′,6-diamidino-2-phenylindole dihydrochloride hydrate (DAPI, Sigma Chemical Co., St Louis, Mo.), in order to visualize cell nuclei. The sections were examined with a fluorescence microscope, and images were captured with a Q-Fire cooled camera (Olympus, Melville, N.Y.). Confocal microscopy was also performed using a Zeiss LSM 510 Meta confocal microscope (Carl Zeiss AG, Oberkochen, Germany). Merged color images were processed using Adobe Photoshop 7.0 (Adobe Systems, San Jose, Calif.).

[4] = system: Na+-dependent glutamate transport; details: db-cAMP, Schlag et al. 1998; cited from earlier work
GLAST mRNA = assay: Real Time RT-PCR of cultured astrocytes, GLAST mRNA; type: cell-based, rat; details: propentofylline 10, 100, 1000 μM; db-cAMP 250 μM; relative to GAPDH
Experimental: as §1
as §2, with “The ΔCT values for the control group (untreated) were then averaged and subtracted from the ΔCT for the experimental groups to obtain the ΔΔCT.” left out

CCCCCCOC(=O)[C@]1(O)C[C@@H]2O[C@@]1(C)n1c3ccccc3c3c4c(c5c6ccccc6n2c5c31)C(=O)NC4 [KT5720]
effect on db-cAMP-dependent GLT-1 expression (GLT-1): blocks induction of GLT-1 protein

COc1cccc(-c2cc(=O)c3ccccc3o2)c1N [PD98059]
effect on db-cAMP-dependent GLT-1 expression (GLT-1): partially attenuates

S=C(S)N1CCCC1 [PDTC]
effect on db-cAMP-dependent GLT-1 expression (GLT-1): inhibited db-cAMP-mediated increases in GLT-1 expression

CCCC(=O)Nc1ncnc2c1ncn2[C@@H]1O[C@@H]2COP(=O)(O)O[C@H]2[C@H]1OC(=O)CCC [db-cAMP, dibutyryl cyclic-adenosine-5′,3′-monophosphate]
GLT-1 mRNA level, in words (GLT-1 mRNA): mimicked | LPS-induced MIP-2 (CXCL2) release (MIP-2 (CXCL2)): had no effect on LPS-induced chemokine release | GLAST protein level, in words (GLAST [1]): greater increase in GLAST than high dose propentofylline | LPS-induced MCP-1 (CCL2) release (MCP-1 (CCL2); LPS 1 μg/ml, propentofylline 1000 μM, db-cAMP 250 μM): had no effect on LPS-induced chemokine release | basal MCP-1 (CCL2) release, treatment alone (MCP-1 (CCL2); without LPS): significantly increased MCP-1 (CCL2) above basal levels | astrocyte morphology ([2]; 3 days or 7 days of treatment, phase contrast microscopy): extend fewer, longer processes | length of astrocyte processes ([2]; 7 days, 250 μM db-cAMP vs. 1000 μM propentofylline): significantly longer processes than propentofylline; also recorded: significantly longer processes than PPF | GLAST staining (GLAST [3]): slightly increased GLAST staining | GLT-1 induction in cultured astrocytes (GLT-1): induced high levels of GLT-1 protein expression | GLT-1 induction in cultured astrocytes (GLT-1; listed as dibutyryl-cAMP): induce astrocytic maturation and GLT-1 induction | increase in glutamate transport activity [4]: 2 fold | sensitivity of increased glutamate uptake to DHK [4]: DHK-insensitive | GLAST mRNA level, in words (GLAST mRNA): mimicked

Reference: patent US20090227606A1, “Methods for Preventing or Treating Acute and Chronic Pain” (priority 2006, published 2009)
